Data on four molecules can be found in US20150353495A1 (PORTOLA PHARMACEUTICALS, INC., priority 2010, published 2015).

Each structure is given as a SMILES string. A value given as a limit tells only on which side of the number the result lay.

Broadly, the IC50 is the concentration that gives 50% inhibition.

The subject of test [1] is markers of allogeneic response (interferon gamma). Conditions: kidney allograft patients; cited from earlier work.
Test [2] deals with T1, full length active recombinant SYK enzyme (Homo sapiens, UniProt P43405).
T1 construct: full length active recombinant SYK enzyme (Millipore, Calif.); purchased Millipore
Put plainly: Inhibition of Syk tyrosine phosphorylation activity (LANCE TR-FRET). Type of test: biochemical. The source says: This example illustrates methods for evaluating the compounds of the invention, along with results obtained for such assays. The in vitro and in vivo human Syk activities of the inventive compounds can be determined by various procedures known in the art, such as a test for their ability to inhibit the activity of human plasma Syk. […] The IC50 value is the concentration (in nM) of the compound required to provide 50% inhibition of human Syk proteolytic activity.
An in vitro assay for detecting and measuring inhibition activity against Syk is as follows:
Inhibition of Syk Tyrosine Phosphorylation Activity
Potency of candidate molecules for inhibiting Syk tyrosine phosphorylation activity is assessed by measuring the ability of a test compound to inhibit Syk-mediated tyrosine phosphorylation of a Syk-specific substrate.
SYK tyrosine phosphorylation activity is measured using the LANCE™ Technology developed by Perkin Elmer Life and Analytical Sciences (Boston, Mass.). LANCE™ refers to homogeneous time resolved fluorometry applications using techniques such as time-resolved fluorescence resonance energy transfer assay (TR-FRET) (see generally for procedures in Perkin Elmer Application Note-How to Optimize a Tyrosine Kinase Assay Using Time Resolved Fluorescence-Based LANCE Detection, wwww.perkinelmer.com/lifesciences). The assay principle involves detection of a phosphorylated substrate using energy transfer from a phosphospecific europium-labeled antibody to streptavidin-allophycocyanin as an acceptor.
To test the ability of candidate molecules to inhibit SYK tyrosine phosphorylation activity, molecules are reconstituted in 30% DMSO and serially diluted 1:3 with the final dilution containing DMSO in the absence of the candidate molecule. The final DMSO concentration in the assay is 3%. Kinase assays are performed as a two part reaction. The first reaction is a kinase reaction and which comprises of a candidate molecule, full length active recombinant SYK enzyme (Millipore, Calif.) and biotin-labeled SYK-specific substrate biotin-[…]-OH. The second reaction involves termination of the kinase reaction and the simultaneous addition of the detection reagents-europium-labeled anti-phosphotyrosine reagent (Eu-W1024-PY100, Perkin Elmer, Boston, Mass.) and Streptavidin-Allophycocyanin detection reagent (SA-APC, Prozyme, CA). The kinase reaction is performed in a black U-bottom 96-well microtitre plate. The final reaction volume is 50 μL and contains a final concentration of 1 nM active SYK enzyme, 550 nM SYK-substrate, and 100 nM ATP diluted in a buffer containing 50 mM Tris pH 7.5, 5 mM MgCl2, and 1 mM DTT. The reaction is allowed to proceed for 1 hour at room temperature. The quench buffer contains 100 mM Tris pH 7.5, 300 mM NaCl2, 20 mM EDTA, 0.02% Brij35, and 0.5% BSA. The detection reagents are added to the reaction mixture at the following dilutions-1:500 for Eu-W1024-PY100 and 1:250 for SA-APC. The kinase reaction is terminated by the addition of 50 μL quench buffer containing the detection reagents. […] Detection of the phosphorlated substrate in the absence and presence of inhibitors is measured in the TR-FRET instrument, Analyst HT (Molecular Probes, Sunnyvale, Calif.) and the condition for measurements are set up using CriterionHost Release 2.0 (Molecular Probes, Sunnyvale, Calif.). […] Inhibition of SYK-tyrosine kinase activity is calculated as the maximum response observed in the presence of inhibitor, compared to that in the absence of inhibitor. […]
For orientation: Time-resolved FRET reads energy transfer from a long-lived donor to a nearby acceptor.

The target of test [3] is T2, JAK1 (Homo sapiens, UniProt P23458).
T2 construct: 5 μl of catalytic domain recombinant Kinase enzyme+Tyr peptide substrate (Invitrogen, CA); purchased Invitrogen
T2 sequence (P23458 875-1153 limits assumed): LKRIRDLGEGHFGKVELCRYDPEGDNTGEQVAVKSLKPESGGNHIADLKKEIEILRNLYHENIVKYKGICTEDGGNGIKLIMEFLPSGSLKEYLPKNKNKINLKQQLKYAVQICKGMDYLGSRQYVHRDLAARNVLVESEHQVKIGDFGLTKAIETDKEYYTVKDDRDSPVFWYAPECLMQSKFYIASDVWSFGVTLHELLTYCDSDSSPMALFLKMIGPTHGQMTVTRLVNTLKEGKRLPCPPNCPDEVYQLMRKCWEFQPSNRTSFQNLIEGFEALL
Put plainly: Z'-LYTE kinase assay JAK1. It counts as biochemical. A digest of the protocol:
(§1)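 In duplicate wells, each test molecule (1% final DMSO) is incubated with recombinant kinase catalytic domain, Tyr6 peptide substrate and ATP for one hour at room temperature; a site-specific protease is then added for another hour before fluorescence reading.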

Test [4] addresses T3, JAK2 (Homo sapiens, UniProt O60674).
T3 construct: 5 μl of catalytic domain recombinant Kinase enzyme+Tyr peptide substrate (Invitrogen, CA); purchased Invitrogen
Put plainly: Z'-LYTE kinase assay JAK2. It counts as biochemical. The essentials: as §1

For test [5], the target named is T4, JAK3 (Homo sapiens, UniProt P52333).
T4 construct: 5 μl of catalytic domain recombinant Kinase enzyme+Tyr peptide substrate (Invitrogen, CA); purchased Invitrogen
T4 sequence (P52333 822-1111 limits assumed): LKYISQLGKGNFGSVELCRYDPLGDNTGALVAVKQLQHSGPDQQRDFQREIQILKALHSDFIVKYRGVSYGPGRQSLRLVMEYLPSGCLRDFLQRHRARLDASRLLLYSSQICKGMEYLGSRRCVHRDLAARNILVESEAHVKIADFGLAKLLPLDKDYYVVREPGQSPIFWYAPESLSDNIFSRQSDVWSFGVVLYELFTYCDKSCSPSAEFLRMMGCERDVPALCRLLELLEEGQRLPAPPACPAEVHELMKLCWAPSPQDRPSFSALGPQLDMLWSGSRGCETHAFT
Put plainly: Z'-LYTE kinase assay JAK3. It counts as biochemical. The essentials: as §1

T3 sequence (O60674 849-1124 limits assumed): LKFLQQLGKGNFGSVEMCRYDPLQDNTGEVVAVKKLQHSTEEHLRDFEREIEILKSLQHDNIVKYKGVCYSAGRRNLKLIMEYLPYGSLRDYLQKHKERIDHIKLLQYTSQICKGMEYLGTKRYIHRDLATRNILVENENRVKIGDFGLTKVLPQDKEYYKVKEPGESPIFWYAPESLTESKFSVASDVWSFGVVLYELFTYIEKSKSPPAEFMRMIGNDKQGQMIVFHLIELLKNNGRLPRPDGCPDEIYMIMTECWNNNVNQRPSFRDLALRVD

Regarding `C[C@H]1CCN(C(=O)CC#N)C[C@H]1N(C)c1ncnc2[nH]ccc12` [CP-690,550], in test [1], the “markers of allogeneic response (interferon gamma)” value is given as “can be reduced”.

Regarding `CC(=O)N1CCN(c2ccc(Nc3ccc(C(N)=O)c(NC4CCC4)n3)cc2)CC1` [Example 1, 6-(4-(4-acetylpiperazin-1-yl)phenylamino)-2-(cyclobutylamino)nicotinamide], the concentration for half-maximal inhibition (IC50) was above 1000 nM in test [2], 100 to 1000 nM in test [3], 100 to 1000 nM in test [4] and 100 to 1000 nM in test [5].

Consider `NC(=O)c1cnc(Nc2cccc(OCCN3CCOCC3)c2)cc1N[C@H](CO)c1ccccc1` [Example 230], for which the half-inhibitory concentration (IC50) was above 1000 nM in test [2], above 1000 nM in test [3], 100 to 1000 nM in test [4] and 1 to 10 nM in test [5].

As to `CC(=O)N1CCN(c2ccc(Nc3cc(N[C@H](CO)c4ccccc4)c(C(N)=O)cn3)cc2)CC1` [Example 231], the IC50 in test [2] was above 1000 nM; in test [3], above 1000 nM; in test [4], 100 to 1000 nM; in test [5], 1 to 10 nM.
